This is an account of results in patent publication US9708334B2, “Substituted 2,4,5,6-tetrahydropyrrolo[3,4-c]pyrazole and 4,5,6,7-tetrahydro-2H-pyrazolo[4,3-c]pyridine compounds as GlyT1 inhibitors” (DART NEUROSCIENCE (CAYMAN) LTD., priority 2014, dated 2017).

The structures appear in SMILES notation.

The target of the assay is T1, GlyT1 (Homo sapiens, UniProt P48067).
T1 construct: expressed in transfected cells
T1 sequence (P48067 1-706): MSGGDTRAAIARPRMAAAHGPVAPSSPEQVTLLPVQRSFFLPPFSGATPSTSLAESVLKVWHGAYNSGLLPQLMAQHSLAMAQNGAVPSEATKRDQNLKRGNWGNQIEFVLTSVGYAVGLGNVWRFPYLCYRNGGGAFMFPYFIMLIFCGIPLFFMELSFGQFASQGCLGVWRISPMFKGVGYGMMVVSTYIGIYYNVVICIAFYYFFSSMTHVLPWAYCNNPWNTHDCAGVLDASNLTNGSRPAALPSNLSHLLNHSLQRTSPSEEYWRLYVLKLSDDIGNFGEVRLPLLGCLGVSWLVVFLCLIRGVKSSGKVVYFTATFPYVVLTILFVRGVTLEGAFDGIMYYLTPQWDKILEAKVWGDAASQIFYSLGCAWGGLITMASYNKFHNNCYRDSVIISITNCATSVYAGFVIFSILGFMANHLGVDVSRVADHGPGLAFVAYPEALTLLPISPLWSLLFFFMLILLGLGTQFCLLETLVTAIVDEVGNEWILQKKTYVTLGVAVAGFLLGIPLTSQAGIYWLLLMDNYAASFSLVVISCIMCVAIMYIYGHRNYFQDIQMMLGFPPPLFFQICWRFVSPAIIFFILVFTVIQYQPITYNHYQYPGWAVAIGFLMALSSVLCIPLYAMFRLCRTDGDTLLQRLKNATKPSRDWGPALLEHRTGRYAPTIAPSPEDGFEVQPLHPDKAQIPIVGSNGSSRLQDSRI
Nature of the assay: Glycine Transporter 1 (GlyT1) uptake assay, scintillation proximity assay of [14C]-glycine uptake. Format: cell-based. As to conditions: SPA, four parameter logistic fit, read-out: GlyT1 (pIC50) (converted). The gist of the method:
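[14C]-glycine uptake read by scintillation proximity on a plate counter. IC50 from four-parameter logistic fit of dose-response data.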
(In general: SPA uses beads or plates that emit light when radiolabelled molecules are held near them.)
Regarding `C[C@H](Oc1ccc(C#N)cc1C(=O)N1Cc2cn(CC(C)(C)F)nc2C1)C(F)(F)F` [Example 378, 3-[2-(2-Fluoro-2-methylpropyl)-2H 4H 5H 6H-pyrrolo[3,4-c]pyrazole-5-carbonyl]-4-{[(2S)-1 1 1-trifluoropropan-2-yl]oxy}benzonitrile], the IC50 is 100 to 1000 nM.

`C[C@H](Oc1ccc(C#N)cc1C(=O)N1Cc2cnn(CC(C)(C)F)c2C1)C(F)(F)F` [Example 379, 3-[1-(2-Fluoro-2-methylpropyl)-1H 4H 5H 6H-pyrrolo[3,4-c]pyrazole-5-carbonyl]-4-{[(2S)-1 1 1-trifluoropropan-2-yl]oxy}benzonitrile]: the IC50 is above 10000 nM.

For `Cc1cc(-n2cc3c(n2)CN(C(=O)c2cc(C#N)ccc2O[C@@H](C)C(F)(F)F)C3)cc(C)n1` [Example 380, 3-[2-(2 6-Dimethylpyridin-4-yl)-2H 4H 5H 6H-pyrrolo[3,4-c]pyrazole-5-carbonyl]-4-{[(2S)-1 1 1-trifluoropropan-2-yl]oxy}benzonitrile], the IC50 was below 100 nM.

With `Cc1cc(-n2cc3c(n2)CN(C(=O)c2cc(C#N)ccc2OC(C)C)C3)cc(C)n1` [Example 381, 3-[2-(2 6-Dimethylpyridin-4-yl)-2H 4H 5H 6H-pyrrolo[3,4-c]pyrazole-5-carbonyl]-4-(propan-2-yloxy)benzonitrile], the IC50 is below 100 nM.

On to `C[C@H](Oc1ccc(C#N)cc1C(=O)N1Cc2cn(Cc3ccccc3)nc2C1)C(F)(F)F` [Example 382], for which the IC50 is 100 to 1000 nM.

Take `C[C@H](Oc1ccc(C#N)cc1C(=O)N1Cc2cnn(Cc3ccccc3)c2C1)C(F)(F)F` [Example 383]: the IC50 is 1000 to 10000 nM.

With `CC(C)n1ncc2c1CN(C(=O)c1cc(C#N)ccc1O[C@@H](C)C(F)(F)F)C2` [Example 384, 3-[1-(Propan-2-yl)-1H 4H 5H 6H-pyrrolo[3,4-e]pyrazole-5-carbonyl]-4-{[(2S)-1 1 1-trifluoropropan-2-yl]oxy}benzonitrile], the IC50 is 1000 to 10000 nM.

Consider `CC(C)n1cc2c(n1)CN(C(=O)c1cc(C#N)ccc1O[C@@H](C)C(F)(F)F)C2` [Example 385, 3-[2-(Propan-2-yl)-2H 4H 5H 6H-pyrrolo[3,4-c]pyrazole-5-carbonyl]-4-{[(2 S)-1 1 1-trifluoropropan-2-yl]oxy}benzonitrile], for which the IC50 was 1000 to 10000 nM.

For the compound `CC(C)Cn1cc2c(n1)CN(C(=O)c1cc(C#N)ccc1O[C@@H](C)C(F)(F)F)C2` [Example 386, 3-[2-(2-Methylpropyl)-2H 4H 5H 6H-pyrrolo[3,4-c]pyrazole-5-carbonyl]-4-{[(2S)-1 1 1-trifluoropropan-2-yl]oxy}benzonitrile], the IC50 was 100 to 1000 nM.

In the case of `CC(C)Cn1ncc2c1CN(C(=O)c1cc(C#N)ccc1O[C@@H](C)C(F)(F)F)C2` [Example 387, 3-[1-(2-Methylpropyl)-1H 4H 5H 6H-pyrrolo[3,4-c]pyrazole-5-carbonyl]-4-{[(2S)-1 1 1-trifluoropropan-2-yl]oxy}benzonitrile], the IC50 was above 10000 nM.

For the compound `C[C@H](Oc1ccc(C#N)cc1C(=O)N1Cc2cnn(C3CCCC3)c2C1)C(F)(F)F` [Example 388, 3-{1-Cyclopentyl-1H 4H 5H 6H-pyrrolo[3,4-c]pyrazole-5-carbonyl}-4-{[(2 S)-1 1 1-trifluoropropan-2-yl]oxy}benzonitrile], the IC50 was 1000 to 10000 nM.

Take `C[C@H](Oc1ccc(C#N)cc1C(=O)N1Cc2cn(C3CCCC3)nc2C1)C(F)(F)F` [Example 389, 3-{2-Cyclopentyl-2H 4H 5H 6H-pyrrolo[3,4-c]pyrazole-5-carbonyl}-4-{[(2S)-1 1 1-trifluoropropan-2-yl]oxy}benzonitrile]: the IC50 was 100 to 1000 nM.

With `CC(C)Oc1ccc(C#N)cc1C(=O)N1Cc2cn(-c3ccc(F)cc3F)nc2C1` [Example 390, 3-[2-(2 4-Difluorophenyl)-2H 4H 5H 6H-pyrrolo[3,4-c]pyrazole-5-carbonyl]-4-(propan-2-yloxy)benzonitrile], the IC50 is 100 to 1000 nM.

For the compound `C[C@H](Oc1ccc(C#N)cc1C(=O)N1Cc2cn(-c3ccc(F)cc3F)nc2C1)C(F)(F)F` [Example 391, 3-[2-(2 4-Difluorophenyl)-2H 4H 5H 6H-pyrrolo[3,4-c]pyrazole-5-carbonyl]-4-{[(2S)-1 1 1-trifluoropropan-2-yl]oxy}benzonitrile], the IC50 is 100 to 1000 nM.

Turning to `COCCCn1ncc2c1CN(C(=O)c1cc(C#N)ccc1O[C@@H](C)C(F)(F)F)C2` [Example 392, 3-[1-(3-Methoxypropyl)-1H 4H 5H 6H-pyrrolo[3,4-c]pyrazole-5-carbonyl]-4-{[(2S)-1 1 1-trifluoropropan-2-yl]oxy}benzonitrile], the IC50 is above 10000 nM.

In the case of `COCCCn1cc2c(n1)CN(C(=O)c1cc(C#N)ccc1O[C@@H](C)C(F)(F)F)C2` [Example 393, 3-[2-(3-Methoxypropyl)-2H 4H 5H 6H-pyrrolo[3,4-c]pyrazole-5-carbonyl]-4-{[(2S)-1 1 1-trifluoropropan-2-yl]oxy}benzonitrile], the IC50 was 100 to 1000 nM.

For `C[C@H](Oc1ccc(C#N)cc1C(=O)N1Cc2cnn(CC3CCOCC3)c2C1)C(F)(F)F` [Example 394, 3-[1-(Oxan-4-ylmethyl)-1H 4H 5H 6H-pyrrolo[3,4-c]pyrazole-5-carbonyl]-4-{[(2S)-1 1 1-trifluoropropan-2-yl]oxy}benzonitrile], the IC50 was 1000 to 10000 nM.

Regarding `Cc1cccc(-n2cc3c(n2)CN(C(=O)c2cc(C#N)ccc2O[C@@H](C)C(F)(F)F)C3)c1F` [Example 395], the IC50 was 100 to 1000 nM.

As for `C[C@H](Oc1ccc(C#N)cc1C(=O)N1Cc2cn(CC3CCOCC3)nc2C1)C(F)(F)F` [Example 396, 3-[2-(Oxan-4-ylmethyl)-2H 4H 5H 6H-pyrrolo[3,4-c]pyrazole-5-carbonyl]-4-{[(2S)-1 1 1-trifluoropropan-2-yl]oxy}benzonitrile], the IC50 was 100 to 1000 nM.

In the case of `C[C@H](Oc1ccc(C#N)cc1C(=O)N1Cc2cn(-c3ccccc3F)nc2C1)C(F)(F)F` [Example 397, 3-[2-(2-Fluorophenyl)-2H 4H 5H 6H-pyrrolo[3,4-c]pyrazole-5-carbonyl]-4-{[(2S)-1 1 1-trifluoropropan-2-yl]oxy}benzonitrile], the IC50 is below 100 nM.

On to `C[C@H](Oc1ccc(S(C)(=O)=O)cc1C(=O)N1Cc2cn(Cc3ccccc3)nc2C1)C(F)(F)F` [Example 398, 2-Benzyl-5-(5-methanesulfonyl-2-{[(2S)-1 1 1-trifluoropropan-2-yl]oxy}benzoyl)-2H 4H 5H 6H-pyrrolo[3,4-c]pyrazole], for which the IC50 was below 100 nM.

In the case of `CC(C)Cn1cc2c(n1)CN(C(=O)c1cc(S(C)(=O)=O)ccc1O[C@@H](C)C(F)(F)F)C2` [Example 399, 5-(5-Methanesulfonyl-2-{[(2S)-1 1 1-trifluoropropan-2-yl]oxy}benzoyl)-2-(2-methylpropyl)-2H 4H 5H 6H-pyrrolo[3,4-c]pyrazole], the IC50 was below 100 nM.

`CC(C)Cn1cc2c(n1)CN(C(=O)c1cc(S(C)(=O)=O)ccc1OC(C)C)C2` [Example 400, 5-[5-Methanesulfonyl-2-(propan-2-yloxy)benzoyl]-2-(2-methylpropyl)-2H 4H 5H 6H-pyrrolo[3,4-c]pyrazole]: the IC50 was below 100 nM.

`C[C@H](Oc1ccc(C#N)cc1C(=O)N1Cc2cn(CC3CCC3)nc2C1)C(F)(F)F` [Example 401, 3-[2-(Cyclobutylmethyl)-2H 4H 5H 6H-pyrrolo[3,4-c]pyrazole-5-carbonyl]-4-{[(2S)-1 1 1-trifluoropropan-2-yl]oxy}benzonitrile]: the IC50 was 100 to 1000 nM.

`C[C@H](Oc1ccc(C#N)cc1C(=O)N1Cc2cn(C3CCCCC3)nc2C1)C(F)(F)F` [Example 402, 3-{2-Cyclohexyl-2H 4H 5H 6H-pyrrolo[3,4-c]pyrazole-5-carbonyl}-4-{[(2S)-1 1 1-trifluoropropan-2-yl]oxy}benzonitrile]: the IC50 is 100 to 1000 nM.

Regarding `CC(C)Oc1ccc(S(C)(=O)=O)cc1C(=O)N1Cc2cn(C3CCCCC3)nc2C1` [Example 403, 2-Cyclohexyl-5-[5-methanesulfonyl-2-(propan-2-yloxy)benzoyl]-2H 4H 5H 6H-pyrrolo[3,4-c]pyrazole], the IC50 was below 100 nM.

As to `C[C@H](Oc1ccc(C#N)cc1C(=O)N1Cc2cn(-c3ccnc(C4CC4)c3)nc2C1)C(F)(F)F` [Example 404, 3-[2-(2-Cyclopropylpyridin-4-yl)-2H 4H 5H 6H-pyrrolo[3,4-c]pyrazole-5-carbonyl]-4-{[(2S)-1 1 1-trifluoropropan-2-yl]oxy}benzonitrile], the IC50 was below 100 nM.

As for `CC(C)Oc1ccc(C#N)cc1C(=O)N1Cc2cn(-c3ccnc(C4CC4)c3)nc2C1` [Example 405, 3-[2-(2-Cyclopropylpyridin-4-yl)-2H 4H 5H 6H-pyrrolo[3,4-c]pyrazole-5-carbonyl]-4-(propan-2-yloxy)benzonitrile], the IC50 was below 100 nM.

As to `CC(C)Oc1ccc(S(C)(=O)=O)cc1C(=O)N1Cc2cn(C3CCCC3)nc2C1` [Example 406, 2-Cyclopentyl-5-[5-methanesulfonyl-2-(propan-2-yloxy)benzoyl]-2H 4H 5H 6H-pyrrolo[3,4-c]pyrazole], the IC50 is below 100 nM.
